# Values quoted from earlier work, collected in US20240268416A1, “ANIMAL FEED ADDITIVE COMPOSITIONS AND METHODS OF USE” (PMI Nutrition, LLC, priority 2023, published 2024).
# Test system: C. elegans
# Details: C. elegans assay
substance,measurement,value
urolithins,concentration needed to obtain a positive effect on muscle function,50 µM
same,concentration required to trigger the muscle function response,11.4 µg/mL
